Data taken from US20250144094A1 (Erasca, Inc., priority 2021, published 2025).

Target: Recombinant human ULK1 (1-649) (Homo sapiens (Human), UniProt O75385)
Experiment: ULK1 ADP Glo kinase activity assay, new method (ULKtide peptide substrate)
Details: 25° C., 40 minutes, read-out: ULK1 biochemical IC50
Protocol: Recombinant human ULK1 (1-649) protein expressed in Sf9 insect cells was obtained from SignalChem (Vancouver, BC), catalog #U01-11G. Active kinase was purified via N-terminal GST tag to >85% purity.
ADP GLO Kinase Assay Reagents were obtained from Promega Corp (Madison, WI), catalog #V9104.
Synthetic peptide substrate (ULKtide) with the amino acid sequence YANWLAASIYLDGKKK was obtained from ThermoFisher Scientific USA.
ULK1 inhibitor potency was determined using the luminescent ADP Glo Kinase Assay (Promega), a universal ADP detection system that measures kinase activity by quantifying the amount of ADP produced during a kinase reaction. ULK1 kinase reactions are performed in a standard 96-well microplate (20 μL reaction volume) at 25° C. for 40 minutes in the presence or absence of the test compound (12-point dilution series starting at 10 μM). Addition of peptide substrate and ATP initiates the kinase reaction.
The standard ADP Glo assay is performed in two steps. In step one, following the kinase reaction, an equal volume of ADP-Glo™ Reagent (20 μL) is added to terminate the kinase reaction and deplete the remaining ATP. In the second step, the Kinase Detection Reagent (10 μL) is added to simultaneously convert ADP to ATP and allow the newly synthesized ATP to be measured using a luciferase/luciferin reaction. Step two of the ADP Glo assay is performed in a white 384-well plate (20 μL final volume). Thirty minutes after the addition of the Detection reagent, light generated from the luciferase reaction is measured (1 second exposure) using a microplate compatible luminometer (CLARIOstar, BMG Labtech).
Inhibition of ULK1 kinase activity is determined for each test compound by comparison to DMSO only control wells. Inhibitor IC50 was calculated by plotting the change in luminescence after 30 minutes (response) versus inhibitor concentration (in log molar) then applying the four-parameter variable slope curve fit (GraphPad Prism). Inhibition of ULK1 in biochemical assay is found in Table 4.

Recombinant human ULK1 (1-649), sequence (O75385 1-649): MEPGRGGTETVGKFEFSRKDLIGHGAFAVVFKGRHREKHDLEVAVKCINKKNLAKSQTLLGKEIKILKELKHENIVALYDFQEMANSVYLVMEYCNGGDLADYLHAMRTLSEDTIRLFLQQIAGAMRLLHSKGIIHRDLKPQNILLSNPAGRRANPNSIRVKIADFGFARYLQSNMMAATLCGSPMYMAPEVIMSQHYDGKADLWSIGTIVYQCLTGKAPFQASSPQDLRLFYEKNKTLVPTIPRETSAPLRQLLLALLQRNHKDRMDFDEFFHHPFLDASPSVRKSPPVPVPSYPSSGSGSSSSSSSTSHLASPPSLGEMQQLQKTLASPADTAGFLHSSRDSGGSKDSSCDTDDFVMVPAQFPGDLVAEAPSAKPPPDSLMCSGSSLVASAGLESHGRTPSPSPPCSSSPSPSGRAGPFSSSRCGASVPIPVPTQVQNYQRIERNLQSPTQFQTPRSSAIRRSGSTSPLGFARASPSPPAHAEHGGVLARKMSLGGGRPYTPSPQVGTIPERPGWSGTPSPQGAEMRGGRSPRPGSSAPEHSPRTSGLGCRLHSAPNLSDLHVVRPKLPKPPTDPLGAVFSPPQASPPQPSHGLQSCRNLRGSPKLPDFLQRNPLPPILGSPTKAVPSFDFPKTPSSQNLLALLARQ

IC50	Compound
50 to 100 nM	Cc1ccc(C2CNC2)cc1Nc1ncc(C(F)(F)F)c(-c2cc(S(C)(=O)=O)cs2)n1 [Example 136, N-(5-(azetidin-3-yl)-2-methylphenyl)-4-(4-(methylsulfonyl)thiophen-2-yl)-5-(trifluoromethyl)pyrimidin-2-amine]
≤ 5 nM	CN1CCS(=O)(=O)c2cc(-c3nc(Nc4cn(C5CCNCC5)nc4C4CC4)ncc3C(F)(F)F)sc2C1=O [Example 141, 7-(2-((3-cyclopropyl-1-(piperidin-4-yl)-1H-pyrazol-4-yl)amino)-5-(trifluoromethyl)pyrimidin-4-yl)-4-methyl-3,4-dihydrothieno[2,3-f][1,4]thiazepin-5(2H)-one 1,1-dioxide]
≤ 5 nM	O=C1c2sc(-c3nc(Nc4cc5c(cc4Cl)CNCC5)ncc3C(F)(F)F)cc2S(=O)(=O)CCN1CC(F)(F)F [Example 143, 7-(2-((7-chloro-1,2,3,4-tetrahydroisoquinolin-6-yl)amino)-5-(trifluoromethyl)pyrimidin-4-yl)-4-(2,2,2-trifluoroethyl)-3,4-dihydrothieno[2,3-f][1,4]thiazepin-5(2H)-one 1,1-dioxide]
≤ 5 nM	CCc1cc2c(cc1Nc1ncc(C(F)(F)F)c(-c3cc4c(s3)C(=O)NCCS4(=O)=O)n1)CCN(C)C2 [Example 146, 7-(2-((7-ethyl-2-methyl-1,2,3,4-tetrahydroisoquinolin-6-yl)amino)-5-(trifluoromethyl)pyrimidin-4-yl)-3,4-dihydrothieno[2,3-f][1,4]thiazepin-5(2H)-one 1,1-dioxide]
≤ 5 nM	CCc1cc2c(cc1Nc1ncc(C(F)(F)F)c(-c3cc4c(s3)C(=O)N(C)CCS4(=O)=O)n1)CCNC2 [Example 147, 7-(2-((7-ethyl-1,2,3,4-tetrahydroisoquinolin-6-yl)amino)-5-(trifluoromethyl)pyrimidin-4-yl)-4-methyl-3,4-dihydrothieno[2,3-f][1,4]thiazepin-5(2H)-one 1,1-dioxide]
≤ 5 nM	CCc1cc2c(cc1Nc1ncc(C(F)(F)F)c(-c3cc4c(s3)C(=O)N(C)CCS4(=O)=O)n1)CCN(C)C2 [Example 148, 7-(2-((7-ethyl-2-methyl-1,2,3,4-tetrahydroisoquinolin-6-yl)amino)-5-(trifluoromethyl)pyrimidin-4-yl)-4-methyl-3,4-dihydrothieno[2,3-f][1,4]thiazepin-5(2H)-one 1,1-dioxide]
10 to 50 nM	CN1CCS(=O)(=O)c2cc(-c3nc(Nc4cc(C5CCNCC5)ccc4Cl)ncc3C(F)(F)F)sc2C1=O [Example 149, 7-(2-((2-chloro-5-(piperidin-4-yl)phenyl)amino)-5-(trifluoromethyl)pyrimidin-4-yl)-4-methyl-3,4-dihydrothieno[2,3-f][1,4]thiazepin-5(2H)-one 1,1-dioxide]
≤ 5 nM	CN1CCc2cc(Nc3ncc(C(F)(F)F)c(-c4cc5c(s4)C(=O)N(CC4CC4)CCS5(=O)=O)n3)c(Cl)cc2C1 [Example 154, 7-(2-((7-chloro-2-methyl-1,2,3,4-tetrahydroisoquinolin-6-yl)amino)-5-(trifluoromethyl)pyrimidin-4-yl)-4-(cyclopropylmethyl)-3,4-dihydrothieno[2,3-f][1,4]thiazepin-5(2H)-one 1,1-dioxide]
≤ 5 nM	CN1CCS(=O)(=O)c2cc(-c3nc(Nc4cc5c(cc4Cl)CNCC5)ncc3C(F)(F)F)sc2C1=O [Example 156, 7-(2-((7-chloro-1,2,3,4-tetrahydroisoquinolin-6-yl)amino)-5-(trifluoromethyl)pyrimidin-4-yl)-4-methyl-3,4-dihydrothieno[2,3-f][1,4]thiazepin-5(2H)-one 1,1-dioxide]

The next lines start with the compound.

Compound	IC50
4-cyclopropyl-7-(2-((4-(1-(2,2-difluoroethyl)piperidin-4-yl)-2-ethylphenyl)amino)-5-(trifluoromethyl)pyrimidin-4-yl)-3,4-dihydrothieno[2,3-f][1,4]thiazepin-5(2H)-one 1,1-dioxide [Example 281]	5 to 10 nM
Cc1ccc(C2CN(C)C2)cc1Nc1ncc(C(F)(F)F)c(-c2cc(S(C)(=O)=O)cs2)n1 [Example 137, N-(2-Methyl-5-(1-methylazetidin-3-yl)phenyl)-4-(4-(methylsulfonyl)thiophen-2-yl)-5-(trifluoromethyl)pyrimidin-2-amine]	> 100 nM
CCc1cc2c(cc1Nc1ncc(C(F)(F)F)c(-c3cc4c(s3)C(=O)NCCS4(=O)=O)n1)CCNC2 [Example 138, 7-(2-((7-ethyl-1,2,3,4-tetrahydroisoquinolin-6-yl)amino)-5-(trifluoromethyl)pyrimidin-4-yl)-3,4-dihydrothieno[2,3-f][1,4]thiazepin-5(2H)-one 1,1-dioxide]	≤ 5 nM
CN1CCc2cc(Nc3ncc(C(F)(F)F)c(-c4cc5c(s4)C(=O)NCCS5(=O)=O)n3)c(F)cc2C1 [Example 139, 7-(2-((7-fluoro-2-methyl-1,2,3,4-tetrahydroisoquinolin-6-yl)amino)-5-(trifluoromethyl)pyrimidin-4-yl)-3,4-dihydrothieno[2,3-f][1,4]thiazepin-5(2H)-one 1,1-dioxide]	≤ 5 nM
CN1CCc2cc(Nc3ncc(C(F)(F)F)c(-c4cc5c(s4)C(=O)N(C)CCS5(=O)=O)n3)c(F)cc2C1 [Example 140, 7-(2-((7-fluoro-2-methyl-1,2,3,4-tetrahydroisoquinolin-6-yl)amino)-5-(trifluoromethyl)pyrimidin-4-yl)-4-methyl-3,4-dihydrothieno[2,3-f][1,4]thiazepin-5(2H)-one 1,1-dioxide]	≤ 5 nM
CCN1CCS(=O)(=O)c2cc(-c3nc(Nc4cc5c(cc4Cl)CN(C)CC5)ncc3C(F)(F)F)sc2C1=O [Example 142, 7-(2-((7-chloro-2-methyl-1,2,3,4-tetrahydroisoquinolin-6-yl)amino)-5-(trifluoromethyl)pyrimidin-4-yl)-4-ethyl-3,4-dihydrothieno[2,3-f][1,4]thiazepin-5(2H)-one 1,1-dioxide]	≤ 5 nM
CN1CCc2cc(Nc3ncc(C(F)(F)F)c(-c4cc5c(s4)C(=O)N(CC(F)(F)F)CCS5(=O)=O)n3)c(Cl)cc2C1 [Example 144, 7-(2-((7-chloro-2-methyl-1,2,3,4-tetrahydroisoquinolin-6-yl)amino)-5-(trifluoromethyl)pyrimidin-4-yl)-4-(2,2,2-trifluoroethyl)-3,4-dihydrothieno[2,3-f][1,4]thiazepin-5(2H)-one 1,1-dioxide]	≤ 5 nM
CN1CC(n2cc(Nc3ncc(C(F)(F)F)c(-c4cc(S(C)(=O)=O)cs4)n3)c(C3CC3)n2)C1 [Example 145, N-(3-cyclopropyl-1-(1-methylazetidin-3-yl)-1H-pyrazol-4-yl)-4-(4-(methylsulfonyl)thiophen-2-yl)-5-(trifluoromethyl)pyrimidin-2-amine]	5 to 10 nM
CN1CCC(c2ccc(Cl)c(Nc3ncc(C(F)(F)F)c(-c4cc5c(s4)C(=O)N(C)CCS5(=O)=O)n3)c2)CC1 [Example 150, 7-(2-((2-chloro-5-(1-methylpiperidin-4-yl)phenyl)amino)-5-(trifluoromethyl)pyrimidin-4-yl)-4-methyl-3,4-dihydrothieno[2,3-f][1,4]thiazepin-5(2H)-one 1,1-dioxide]	10 to 50 nM
O=C1NCCS(=O)(=O)c2cc(-c3nc(Nc4cn(C5CCNCC5)nc4C4CC4)ncc3C(F)(F)F)sc21 [Example 151, 7-(2-((3-cyclopropyl-1-(piperidin-4-yl)-1H-pyrazol-4-yl)amino)-5-(trifluoromethyl)pyrimidin-4-yl)-3,4-dihydrothieno[2,3-f][1,4]thiazepin-5(2H)-one 1,1-dioxide]	≤ 5 nM
CN1CCC(n2cc(Nc3ncc(C(F)(F)F)c(-c4cc5c(s4)C(=O)NCCS5(=O)=O)n3)c(C3CC3)n2)CC1 [Example 152, 7-(2-((3-cyclopropyl-1-(1-methylpiperidin-4-yl)-1H-pyrazol-4-yl)amino)-5-(trifluoromethyl)pyrimidin-4-yl)-3,4-dihydrothieno[2,3-f][1,4]thiazepin-5(2H)-one 1,1-dioxide]	≤ 5 nM
O=C1c2sc(-c3nc(Nc4cc5c(cc4Cl)CNCC5)ncc3C(F)(F)F)cc2S(=O)(=O)CCN1C1CC1 [Example 155, 7-(2-((7-chloro-1,2,3,4-tetrahydroisoquinolin-6-yl)amino)-5-(trifluoromethyl)pyrimidin-4-yl)-4-cyclopropyl-3,4-dihydrothieno[2,3-f][1,4]thiazepin-5(2H)-one 1,1-dioxide]	≤ 5 nM
CN1CCS(=O)(=O)c2cc(-c3nc(Nc4cc5c(cc4F)CNC5)ncc3C(F)(F)F)sc2C1=O [Example 157, 7-(2-((6-fluoroisoindolin-5-yl)amino)-5-(trifluoromethyl)pyrimidin-4-yl)-4-methyl-3,4-dihydrothieno[2,3-f][1,4]thiazepin-5(2H)-one 1,1-dioxide]	≤ 5 nM
O=C1c2sc(-c3nc(Nc4cc5c(cc4Cl)CNCC5)ncc3C(F)(F)F)cc2S(=O)(=O)CCN1C1CCC1 [Example 158, 7-(2-((7-chloro-1,2,3,4-tetrahydroisoquinolin-6-yl)amino)-5-(trifluoromethyl)pyrimidin-4-yl)-4-cyclobutyl-3,4-dihydrothieno[2,3-f][1,4]thiazepin-5(2H)-one 1,1-dioxide]	≤ 5 nM
